Source: patent US20230219939A1, “N-(1-CYANO-PYRROLIDIN-3-YL)-5-(3-(TRIFLUOROMETHYL)PHENYL)OXAZOLE-2-CARBOXAMIDE DERIVATIVES AND THE CORRESPONDING OXADIAZOLE DERIVATIVES AS USP30 INHIBITORS FOR THE TREATMENT OF MITOCHONDRIAL DYSFUNCTION” (MISSION THERAPEUTICS LIMITED, priority 2020, published 2023)

Key:
Cathepsin B = Cathepsin B (Homo sapiens, UniProt P07858); assay: Cathepsin B IC50; type: biochemical
Cathepsin K = target: T1, Cathepsin K (Homo sapiens, UniProt P43235); assay: Cathepsin K IC50; type: biochemical
T1 sequence (P43235 115-329): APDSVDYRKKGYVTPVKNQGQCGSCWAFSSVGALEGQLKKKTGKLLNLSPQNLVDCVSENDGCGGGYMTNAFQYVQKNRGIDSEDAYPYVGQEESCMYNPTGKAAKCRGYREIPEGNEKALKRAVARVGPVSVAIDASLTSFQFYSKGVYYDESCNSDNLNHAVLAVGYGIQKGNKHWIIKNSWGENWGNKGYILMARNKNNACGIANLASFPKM

Cathepsin L = Cathepsin L (Homo sapiens, UniProt P07711); assay: Cathepsin L IC50; type: biochemical; conditions: read-out: Cathepsin IC50 (μM) Cathepsin L
Cathepsin V = Cathepsin V (Homo sapiens, UniProt O60911); assay: Cathepsin V IC50; type: biochemical
Cathepsins B, K, L, S, V = assay: Cathepsin panel IC50 (summary over B, K, L, S, V); type: biochemical
[1] = tested on: HCT116 human colorectal carcinoma cells; assay: In vitro cytotoxicity (Cell Tox), alamarBlue; type: cell-based; conditions: HCT-116, 96-hour continual compound exposure
Source text: There is also a need for compounds that have a favourable safety profile, which may be measured by a variety of standard in vitro and in vivo methods. A cell toxicity counter-screen may be used to assay the anti-proliferative/cytotoxic effect in a particular cell line (e.g. HCT116) by fluorometric detection of rezasurin (alamarBlue™) to resofurin in response to mitochondrial activity.
Measured in HCT116 human colorectal carcinoma cells using alamarBlue™ as the assay endpoint. Compound cytotoxicity was measured over a period of 96-hour continual compound exposure.

Log D = type: physicochemical; conditions: pH 7.4; read-out: Log D measured at pH 7.4
Source text: log D: distribution co-efficient; lipophilicity measurement.

mouse hepatocytes = assay: Hepatocyte Cl mouse; type: in vitro ADME
Protocol: Hep Cl mouse: in vitro hepatocyte clearance in mouse cells.
(§1) Clu: in vitro clearance. Clu as defined here is the scaled clearance, in turn calculated from the intrinsic clearance. The intrinsic clearance is the predicted clearance due to hepatic metabolic reactions, determined from incubation of a compound in a hepatocyte preparation.

hepatocytes = assay: Hepatocyte Cl human; type: in vitro ADME
Protocol: Hep Cl human: in vitro hepatocyte clearance in human cells.
as §1

Mouse plasma stability = type: in vitro ADME
[2] = tested on: P-glycoprotein (human MDR1); assay: MDR1-MDCK flux assay; type: in vitro ADME, Canine; conditions: dog, read-out: MDR1-MDCK Effective efflux ratio
Source text: The treatment of CNS disorders, including Alzheimer's disease, Parkinson's disease, and other disorders described herein, requires drug molecules to target the brain, which requires adequate penetration of the blood brain barrier. […] The probability that a compound can cross the blood brain barrier may be measured by an in vitro flux assay utilizing a MDR1-MDCK cell monolayer (Madin-Darby Canine Kidney cells transfected with MDR-1 resulting in overexpression of the human efflux transporter P-glycoprotein). Additionally, exposure may also be measured directly in brain and plasma using in vivo animal models.
MDR1-MDCK (Madin-Darby Canine Kidney cell monolayer) (in vitro) flux assay.

[3] = WT-MDCK (wild-type) in vitro flux; type: in vitro ADME; conditions: dog
Source text: WT-MDCK (wild-type) in vitro flux.

[4] = Plasma binding, equilibrium dialysis; type: in vitro ADME; conditions: mouse plasma; read-out: Binding Mouse Plasma fu, p
Source text: Plasma fu,p: The free fraction of a compound in plasma preparation determined by in vitro equilibrium dialysis. It is understood that only unbound (free) compound is capable of engaging with the target.

[5] = Brain homogenate binding, equilibrium dialysis; type: in vitro ADME; conditions: mouse, read-out: Binding Mouse Brain fu, br
Source text: Brain fu,br: The free fraction of a compound in brain homogenate preparation determined by in vitro equilibrium dialysis. It is understood that only unbound (free) compound is capable of engaging with the target.

TOM20 ubiquitylation = assay: TOM20-ubiquitylation assay; type: cell-based, human; conditions: Antimycin A/oligomycin mitophagy trigger
Source text: Human cell lines can be challenged with mitochondrial depolarizing agents (ionophores (eg. CCCP, valinomycin), mitochondrial complex inhibitors (oligomycin, antimycin A)) to induce ubiquitylation of TOM20, which is then further promoted in the presence of USP30 inhibitors. TOM20 ubiquitylation is subsequently assessed through western blotting of the cell lysates, with TOM20 ubiquitylation adduct detection possible due to an 8 kDa molecule weight increase for each molecule of ubiquitin added, resulting in laddering of a TOM20 immunoreactive band. TOM20-ubiquitylation levels can be quantified using chemiluminescence densitometry of laddered immunoreactive bands.

[6] = Brain microdialysis PK 30 mg/kg PO mouse; type: in vivo
Source text: Kpuu is the ratio of unbound drug in brain to unbound drug in plasma and may be indicative of potential for treating peripheral and/or CNS indications.

UUO injured kidneys = assay: Unilateral ureteral obstructive kidney disease model (UUO); type: in vivo, C57BL/6 mice; conditions: 10 days
Source text: UUO causes renal injury characterised by tubular cell injury, interstitial inflammation and fibrosis. It serves as a model of irreversible post-renal acute kidney injury (AKI). Experimental UUO has illustrated the molecular mechanisms of apoptosis, inflammation and fibrosis, all of which are key processes in renal injury, regardless of the primary insult. Consequently, the UUO model provides investigators information beyond obstruction (Chevalier et al, 2009, Kidney Int 75(11): 1145-1152). Example 1 was assessed in the UUO model to determine the ability of the compound to attenuate progressive tubulointerstitial fibrosis and chronic kidney disease (CKD). On day 1 of the study, adult C57BL/6 mice were dosed by oral gavage according to one of the following dosing regimens; Vehicle or 15 mg/kg Example 1 (p.o.) BID. Two hours post dosing on day 1 study mice underwent surgery to ligate the left ureter at two points. Successful UUO surgery was later confirmed by observation of dilation of renal pelvis due to hydronephrosis. The animals were dosed according to their prescribed regimen for 10 days at which point kidneys were harvested, or histopathology assessment and for protein/RNA assessment. Picrosirius Red staining was performed to assess the extent of collagen deposition and IHC was employed to assess relative α-Smooth Muscle Actin (α-SMA) expression.

Chain of Cathepsin L (P07711 114-333, species assumed): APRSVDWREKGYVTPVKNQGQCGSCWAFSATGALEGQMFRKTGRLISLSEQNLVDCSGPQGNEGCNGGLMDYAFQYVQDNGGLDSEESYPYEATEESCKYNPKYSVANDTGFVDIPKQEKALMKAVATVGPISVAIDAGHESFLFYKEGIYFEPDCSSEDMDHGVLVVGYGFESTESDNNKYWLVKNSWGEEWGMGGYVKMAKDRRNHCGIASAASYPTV
Chain of Cathepsin V (O60911 114-334, species assumed): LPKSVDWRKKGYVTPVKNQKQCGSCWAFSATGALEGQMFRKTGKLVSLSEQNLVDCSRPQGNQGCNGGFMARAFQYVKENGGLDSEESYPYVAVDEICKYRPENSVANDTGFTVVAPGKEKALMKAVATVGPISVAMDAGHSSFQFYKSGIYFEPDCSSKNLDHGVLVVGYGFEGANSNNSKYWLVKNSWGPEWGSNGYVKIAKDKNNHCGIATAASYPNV

COC[C@@H]1C[C@@H](NC(=O)c2ncc(-c3cccc(C(F)(F)F)c3)o2)CN1C#N [Example 1, N-((3R,5S)-1-Cyano-5-(methoxymethyl)-pyrrolidin-3-yl)-5-(3-(trifluoromethyl)phenyl)oxazole-2-carboxamide]
IC50 (Cathepsin B): 122 µM | IC50 (Cathepsin K): 10.2 µM | IC50 (Cathepsin L): 30.4 µM | IC50 (Cathepsin V): 105 µM | Selectivity preference for USP30 v cathepsins (Cathepsins B, K, L, S, V): >1133 | IC50 (Cathepsins B, K, L, S, V; range over the five cathepsins, read-out: Cathepsin IC50 (μM) B, K, L, S, V): 10.2 to 138 µM | EC50 [1]: > 30 µM | logD (Log D): 2.6 | Hepatocyte Cl mouse Scaled Clu (mouse hepatocytes): 4.86 L/h/kg | hepatocyte metabolic stability compared to Reference Examples A and B (in words) (mouse hepatocytes): significantly improved hepatocyte metabolic stability | Hepatocyte Cl human Scaled Clu (hepatocytes): 0.618 L/h/kg | plasma stability compared to Reference Example B (in words) (Mouse plasma stability): significantly improved plasma stability | half-life (Mouse plasma stability; mouse plasma, read-out: Stability Mouse plasma t1/2): 5.98 h | efflux ratio [2]: 1.2 | efflux ratio [3]: 0.8 | Papp A→B ([3]; A-B): 118 nm/s | fraction unbound [4]: 0.12 | fraction unbound [5]: 0.05 | TOM20-Ub 1.5-fold gain EC1.5x (TOM20 ubiquitylation): 0.020 µM | Kp uu ([6]; Brain microdialysis PK 30 mg/kg PO - mouse): 1.2 | pre-frontal cortex Cmax, u/cell TOM20-Ub ([6]; Brain microdialysis PK 30 mg/kg PO mouse): 23-fold | α-SMA levels in UUO injured kidneys (IHC) (UUO injured kidneys; 15 mg/kg oral BID, vs vehicle treated controls): statistical reduction in α-SMA levels | collagen deposition (picrosirius red staining) in ligated kidneys (UUO injured kidneys; 15 mg/kg p.o. BID, vs vehicle): statistically reduced collagen deposition
